Assay results reported in patent US12665203B2, “Organo-metallic analytes for nonaqueous redox flow batteries” (The Regents of the University of California, priority 2020, dated 2026).
Like-named read-outs stand apart in the source and are kept apart here.

Legend:
[1] = symmetric NRFB, cited from earlier work
[2] = Cyclic voltammetry: redox potentials, diffusion coefficients, electron-transfer rate constants; format: physicochemical
[3] = Working electrode screen, extended cycling; settings: GC electrodes, 100 cycles
Excerpt: Potential working electrodes for the NRFB cell tests were also screened. GC, reticulated vitreous carbon (RVC, 20, 80 and 100 PPI), graphite rods, and carbon felt which are all commonly employed as working electrodes in NRFB applications were examined.

[4] = Charging/discharging, asymmetric H-cell, anion exchange membrane separator
Procedure: Complex 2b was also tested as an analyte in an asymmetric cell configuration because this allowed us to achieve a cell design where up to four electrons are stored during each charge and discharge cycle. Using an AEM as separator, potentials and currents were initially chosen to maximize the energy density of the cell: storing 4 electrons in the battery. Over 10 cycles and 45 h, a Coulombic efficiency of 98% was observed (FIGS. 17A-C). […] An asymmetric cell with 2b functioning as a four-electron analyte could be revisited as AEM technology is refined.
Charge-discharge studies were performed inside of a glovebox under an inert atmosphere using a CH Instruments Electrochemical Analyzer Model 1400. The custom H-cell was designed by Adams and Chittenden (FIGS. 21A-B and 22) with compartments separated by an AMI-7001S Anion exchange membrane (Membrane International Inc.) or glass frit. If a membrane was used, it was soaked in 0.5 M nBu4NBF4MeCN electrolyte solution for 48 h prior to use. […] In the asymmetric studies, the counter compartment contained only 3.5 mL 0.5 M nBu4NBF4MeCN electrolyte solution, and an isomolded graphite rod counter electrode. […]

[5] = Cyclic voltammetry: redox potentials, diffusion coefficients, electron-transfer rate constants; format: physicochemical; settings: for D0: calculated using eq 2 (Randles-Sevcik); for D0 / k0: GC electrode; for k0: calculated using eq 4 (Nicholson method)
Procedure: These redox events correspond to the 2b^+/2b couple at +0.08 V, the 2b/2b^− couple at −0.20 V, the 2b^−/2b^2− couple at −0.90 V, and the 2b^2−/2b^3− couple at −1.38 V vs SCE.
The mass transport and electrokinetics of 2b were also evaluated because a RFB analyte must have fast diffusion kinetics (D) and heterogeneous electron-transfer rate (k0) to have a high rate capability. Roughly, k0 of 10^−5 cm/s is considered a minimum requirement, and this minimum requirement is met by most of the recently studied NRFB analytes. The rate is also dependent on the electrode material, and is generally orders of magnitude higher when using Hg, Pt, or Au electrodes. For this reason, kinetic parameters were probed using a glass carbon (GC) button electrode. CV's were recorded of 2b at varying scan rates, and the D values were determined by plotting the current density versus the square root of the scan rate (FIGS. 6A-C). From the slope of the linear fit of this line and the Randles-Sevcik equation (see equations below), D for each redox couple was obtained (eq. 2). Plots of the inverse of the square root of the scan rate versus the transfer parameter (ψ), extracted from the peak to peak separation (ΔEp), were also constructed, so that k0 could be calculated using the Nicholson method (TABLE 5, eq 3-4). For each redox couple D is on the order of 10^−6 cm^2/s, and k0 is on the order of 10^−3 cm/s (TABLE 5).
All potentials are referenced to the SCE couple, and ferrocene was used as an external standard where the E/of ferrocene/ferrocenium is +0.40 V vs. SCE in 0.1 M Bu4NPF6MeCN. Bu4NPF6 was recrystallized from ethanol and placed under vacuum for 72 hours before electrolyte solutions were made. Electrolyte solutions were stored over 3 Å molecular sieves for at least 48 hours before use. Sieves were activated by heating under vacuum at 270° C. for at least 72 hours. UV-Vis spectra were obtained using a 1 cm cuvette using an Agilent 8453 UV-vis spectrophotometer.
The diffusion coefficients for each redox couple were determined by first plotting CV's of 2b at varying scan rates (0.2-8 V/s) (FIG. 10). The diffusion coefficients were then determined from the slope of the peak current density (jp) versus the square root of the scan rate (υ^1/2):
[…], transfer parameter (ψ) was calculated by obtaining the peak to peak separation of each redox couple (ΔEp), at varying scan rates (0.2-8 V/s) (FIG. 10):
[formula] The electron transfer rate constant (k0) was then extracted from the slope of a plot of versus υ^1/2 (FIG. 10):
[formula] where n is the number of electrons transferred, F is the Faraday constant (96485 Cmol^−1), D is the averaged diffusion coefficient for the oxidation and reduction reaction (DO and DR) (cm^2/s), υ is the scan rate (V/s), R is the ideal gas constant (8.314 J/mol-K) and T is the temperature (K). Calculation 4.

[6] = Charging/discharging, symmetric NRFB H-cell, glass frit separator; settings: after three weeks of charging/discharging
Procedure: Complex 2b was tested in both symmetric and asymmetric NRFB configurations and in both cases, an anion exchange membrane (AEM), and a glass frit as separator between the working electrode and counter electrode compartments were trialed. […] A current of 0.2 mA for the charge and 0.2 mA for the discharge were chosen as described below. Two consecutive plateaus are observed for each charging and discharging process, indicative of two electron transfer processes (FIGS. 12A-B and 13).
The first plateau at −0.97 V is determined by the oxidation of 2b^− to 2b in the cathodic compartment, and the concurrent reduction of 2b^− to 2b^2− in the anodic compartment. The second plateau at −0.21 V is determined by the oxidation of 2b to 2b^+ in the cathodic compartment, with concurrent reduction of 2b^2− to 2b^3− in the anodic compartment. Upon discharge, the reduction of 2b^+ to 2b and 2b to 2b^− in the cathodic compartment results in a small potential drop, with discharging plateaus of −0.98 and −0.24 V, respectively.
Charge-discharge studies were performed inside of a glovebox under an inert atmosphere using a CH Instruments Electrochemical Analyzer Model 1400. The custom H-cell was designed by Adams and Chittenden (FIGS. 21A-B and 22) with compartments separated by an AMI-7001S Anion exchange membrane (Membrane International Inc.) or glass frit. […]

For `COCCOCCOCCNc1ccc(NCCOCCOCCOC)c2c1C(=O)c1ccccc1C2=O` [(Me-TEG)2DAAQ], the Cactive ([1]; solvent DME) is listed as 1000 mM.

In the case of `C1=Cc2nc1c(-c1ccccc1)c1ccc([nH]1)c(-c1ccccc1)c1nc(c(-c3ccccc3)c3ccc([nH]3)c2-c2ccccc2)C=C1` [H2TPP], the Cactive ([1]; solvent CH2Cl2) is given as 10 mM.

In the case of [(I2P^−)2Al][OTf] [2b], the “redox potential, 2b/2b^− couple” value ([2]; CV, 0.5 M Bu4NBF4 MeCN) is reported as −0.20 V vs SCE, the “redox potential, 2b^2−/2b^3− couple” value ([2]; CV, 0.5 M Bu4NBF4 MeCN) is reported as −1.38 V vs SCE and the “redox potential, 2b^+/2b couple” value ([2]; CV, 0.5 M Bu4NBF4 MeCN) is reported as “+0.08 V vs SCE”. For the same compound, the “redox potential, 2b^−/2b^2− couple” value ([2]; CV, 0.5 M Bu4NBF4 MeCN) was −0.90 V vs SCE, the E1/2 ([2]; couple 2b^2+/1+) was 0.06 V vs SCE and the “stability of analyte remaining in solution” value [3] was “stable to extended cycling in solution”. For the same compound, the “degradation of the analyte” value ([4]; asymmetric NRFB configuration, multiple cycles, separator not stated) was “no degradation of the analyte”, the “decomposition of the analyte” value ([4]; asymmetric cell, AEM, after 45 h) was “Decomposition of the analyte was observed” and the E1/2 ([5]; couple 2b^0/1−) was −1.08 V vs SCE. For the same compound, the D0 ([5]; couple 2b^0/1−) was 6.3 (5.5) 10^−6 cm^2/s, the k0 ([5]; couple 2b^0/1−) was 13 ± 2.7 × 10^−3 cm/s and the E1/2 ([5]; couple 2b^1+/0) was −0.30 V vs SCE. For the same compound, the D0 ([5]; couple 2b^1+/0) was 5.1 (4.9) 10^−6 cm^2/s, the k0 ([5]; couple 2b^1+/0) was 8.9 ± 1.2 × 10^−3 cm/s and the E1/2 ([5]; couple 2b^1−/2−) was −1.51 V vs SCE. For the same compound, the D0 ([5]; couple 2b^1−/2−) was 9.9 (4.6) 10^−6 cm^2/s, the k0 ([5]; couple 2b^1−/2−) was 10 ± 2.1 × 10^−3 cm/s and the D0 ([5]; couple 2b^2+/1+) was 4.7 (6.8) 10^−6 cm^2/s. The k0 ([5]; couple 2b^2+/1+) was 8.1 ± 1.7 × 10^−3 cm/s, the “D, order of magnitude” value ([5]; each redox couple) was ~10^−6 cm^2/s and the “k0, order of magnitude” value ([5]; each redox couple) was ~10^−3 cm/s. For the same compound, the degradation of analyte [6] was “Partial degradation”.

For [bpy(COOMe)2]3Cr, the Cactive ([1]; solvent MeCN) is listed as 210 mM.

For phthalocyanine Mn-nitride [PcMnN], the Cactive ([1]; solvent MeCN) is listed as 1 mM.
